Earlier results as cited in paper PMC5051147, “Ester Hydrolysis Differentially Reduces Aconitine-Induced Anti-hypersensitivity and Acute Neurotoxicity: Involvement of Spinal Microglial Dynorphin Expression and Implications for Aconitum Processing” (Frontiers in Pharmacology, 2016).

Assays:
mice = test system: mice; set-up: method as in Zheng et al., 1994; settings: subcutaneous, ref Zheng et al., 1994; cited from earlier work
rats = test system: rats; set-up: method as in Zheng et al., 1994; settings: subcutaneous, ref Zheng et al., 1994; cited from earlier work
[1] = set-up: method as in Zheng et al., 1994; settings: intracerebroventricular injection; ref Zheng et al., 1994; cited from earlier work
[2] = test system: acetic acid and formalin tests; set-up: method as in Yu et al., 1996; settings: systemic; ref Yu et al., 1996; cited from earlier work
[3] = test system: heat hyperalgesia in spinal L5/L6 nerve–ligated neuropathic rats; set-up: method as in Li et al., 2016; settings: ref Li et al., 2016; cited from earlier work
[4] = test system: dynorphin A expression in spinal microglia; settings: ref Li et al., 2016, cited from earlier work
[5] = test system: mechanical allodynia in spinal L5/L6 nerve–ligated neuropathic rats; set-up: method as in Li et al., 2016; settings: ref Li et al., 2016; cited from earlier work

## CCN1C[C@]2(COC)[C@H](OC(C)=O)C[C@H](OC)C34C1C([C@H](OC)[C@@H]32)[C@]1(O)[C@@H]2[C@H]4C[C@@](O)([C@@H]2OC(=O)c2ccccc2)[C@@H](OC)[C@@H]1OC(C)=O [3,15-diacetylbenzoylaconine]
mice
  ED50 relative to 3-acetylaconitine (times greater): 12–16 times
rats
  ED50 relative to 3-acetylaconitine (times greater): 25–30 times
[1]
  Therapeutic index relative to 3-acetylaconitine: three-fold higher

## CCN1C[C@]2(COC)[C@H](O)C[C@H](OC)[C@]34C1[C@H]([C@H](OC)[C@H]23)[C@@]1(OC(C)=O)C[C@H](OC)[C@@]2(O)C[C@@H]4[C@@H]1[C@H]2OC(=O)c1ccc(OC)cc1 [yunaconitine]
[2]
  Antinociception compared with analogues: greater antinociception than bulleyaconitine A and 3-acetylaconitine

## bulleyaconitine A
[3]
  ED50, block of heat hyperalgesia: 201 pmol
[4]; read-out: EC50, stimulation of microglial dynorphin A expression
  EC50: 45 nM
[4]; spinal cord and cultured primary spinal microglia
  Effect on dynorphin A level / expression: significantly increased the dynorphin A level
[5]
  ED50, block of mechanical allodynia: 180 pmol
